Peptide text beside a SMILES is read from it.
How the values were obtained:
Mesocricetus auratus [1] = test: Oral administration at a dose of 37.5 mg/kg 30 min prior to HNE and reduction in the number of white blood cells was reported
Neutrophil elastase = biological target: T1, Neutrophil elastase (Homo sapiens, UniProt P08246); test: Inhibitory activity against Human Neutrophil Elastase by HNE-catalyzed hydrolysis of MeO-Suc-Ala-Ala-Pro-Val-pNa
T1 sequence (P08246 whole entry): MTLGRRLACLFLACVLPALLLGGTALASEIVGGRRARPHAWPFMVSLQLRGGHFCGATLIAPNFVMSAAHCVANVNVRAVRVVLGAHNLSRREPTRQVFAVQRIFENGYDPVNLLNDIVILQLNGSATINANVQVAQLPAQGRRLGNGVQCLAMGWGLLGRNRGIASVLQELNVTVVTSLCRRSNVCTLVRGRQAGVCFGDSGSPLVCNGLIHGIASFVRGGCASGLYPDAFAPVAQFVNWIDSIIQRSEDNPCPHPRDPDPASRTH

Mesocricetus auratus [2] = organism: Mesocricetus auratus; test: Reduction in wet lung weight relative to the body weight in hamsters

Row | Compound | Reduction (Mesocricetus auratus [1]) | Ki (Neutrophil elastase) | Lw/Bw (Mesocricetus auratus [2])
1 | CC(C)[C@H](NC(=O)c1ccc(O)cc1)C(=O)N1CCC[C@H]1C(=O)N[C@H](C(=O)C(F)(F)F)C(C)C | 28% | 3.9 nM | 35
2 | Cc1ccc(C(=O)N[C@H](C(=O)N2CCC[C@H]2C(=O)N[C@H](C(=O)C(F)(F)F)C(C)C)C(C)C)cc1C | 55% | 1 nM | 75
3 | CC(C)[C@H](NC(=O)C(=O)O)C(=O)N1CCC[C@H]1C(=O)N[C@H](C(=O)C(F)(F)F)C(C)C | 38% | 810 nM | 2
4 | CC(C)[C@H](NS(=O)(=O)C(F)(F)F)C(=O)N1CCC[C@H]1C(=O)N[C@H](C(=O)C(F)(F)F)C(C)C | 17% | 150 nM | 20
5 | CC(C)[C@H](NC(=O)c1ccc(F)cc1)C(=O)N1CCC[C@H]1C(=O)N[C@H](C(=O)C(F)(F)F)C(C)C | 22% | 2.9 nM | 44
6 | CC(C)[C@H](NC(=O)Nc1ccc(F)cc1)C(=O)N1CCC[C@H]1C(=O)N[C@H](C(=O)C(F)(F)F)C(C)C | 8% | 11 nM | -3
7 | CC(C)[C@H](NC(=O)c1ccccn1)C(=O)N1CCC[C@H]1C(=O)N[C@H](C(=O)C(F)(F)F)C(C)C | 44% | 20 nM | 8
8 | CC(C)C(NC(=O)C1CCCN1C(=O)[C@@H](NS(=O)(=O)C12CC3CC(CC(C3)C1)C2)C(C)C)C(=O)C(F)(F)F (some centres not stated) | 61% | 1.2 nM | -36
9 | CC(C)C(NC(=O)C1CCCN1C(=O)[C@@H](NC(=O)c1ccc(C(=O)NS(C)(=O)=O)cc1)C(C)C)C(=O)C(F)(F)F (some centres not stated) | 43% | 4.2 nM | -9
10 | CC(=O)Nc1ccc(S(=O)(=O)N[C@H](C(=O)N2CCCC2C(=O)NC(C(=O)C(F)(F)F)C(C)C)C(C)C)cc1 (some centres not stated) | 32% | 55 nM | 2
11 | CC(C)C(NC(=O)C1CCCN1C(=O)[C@@H](NS(=O)(=O)c1c(F)c(F)c(F)c(F)c1F)C(C)C)C(=O)C(F)(F)F (some centres not stated) | 27% | 1.6 nM | -24
12 | COC(=O)c1cc(C(=O)N[C@H](C(=O)N2CCCC2C(=O)NC(C(=O)C(F)(F)F)C(C)C)C(C)C)cc(C(=O)OC)c1 (some centres not stated) | 6% | 11 nM | 6
13 | CC(C)C(NC(=O)c1ccc(C(=O)NS(=O)(=O)c2ccc(Br)cc2)cc1)C(=O)N1CCC[C@H]1C(=O)N[C@H](C(=O)C(F)(F)F)C(C)C (some centres not stated) | 30% |  | -0.5
14 | CC(C)C(NC(=O)C1CCCN1C(=O)[C@@H](NC(=O)/C=C/c1ccc(C(=O)O)cc1)C(C)C)C(=O)C(F)(F)F (some centres not stated) | 68% | 1.8 nM | 13
15 | CC(C)C(NC(=O)C1CCCN1C(=O)[C@@H](NS(=O)(=O)c1ccc(Cl)cc1)C(C)C)C(=O)C(F)(F)F (some centres not stated) | 7% | 3.3 nM | -41
16 | CSc1ccc(C(=O)N[C@H](C(=O)N2CCCC2C(=O)NC(C(=O)C(F)(F)F)C(C)C)C(C)C)cc1 (some centres not stated) | 36% | 2.3 nM | 20
17 | CC(C)C(NC(=O)C1CCCN1C(=O)[C@@H](NS(=O)(=O)c1ccc2ccccc2c1)C(C)C)C(=O)C(F)(F)F (some centres not stated) | 20% | 2.7 nM | 
18 | COc1cccc(OC)c1C(=O)N[C@H](C(=O)N1CCCC1C(=O)NC(C(=O)C(F)(F)F)C(C)C)C(C)C (some centres not stated) | 177% | 15 nM | 20
19 | CC(C)C(NC(=O)C1CCCN1C(=O)[C@@H](NC(=O)c1ccc(S(C)(=O)=O)cc1)C(C)C)C(=O)C(F)(F)F (some centres not stated) | 58% | 2 nM | -16
20 | CC(C)[C@H](NC(=O)OCc1ccccc1)C(=O)N1CCC[C@H]1C(=O)N[C@H](C(=O)C(F)(F)F)C(C)C (HELM PEPTIDE1{[O=C(OCc1ccccc1)[*:2]].V.P.V.[FC(F)(F)[*:1]]}$$$$V2.0) | 38% |  | 53
